Data as given in the METLIN SMRT retention time set (Domingo-Almenara et al. 2019).

Test: gradient 5% acetonitrile 3 min, to 50% in 2 min, to 85% in 15 min, held 3 min, 100 µL/min
Details: column: Zorbax Extend-C18 2.1 x 50 mm; eluents: water / acetonitrile, 0.1% formic acid
In short: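 A Zorbax Extend-C18 column (2.1 × 50 mm, 1.8 μm) run at 100 μL/min with water and acetonitrile, both containing 0.1% formic acid, separated mixtures of ~100 pure standards. The HPLC was coupled to a quadrupole time-of-flight mass spectrometer operated in positive and negative ionization mode, with dead and dwell volumes of 40 μL and 900 μL. Each retention time was taken from a computationally picked adduct peak that was then manually inspected.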

| RP-LC retention time | SMILES |
| --- | --- |
| 668 s | O=C(NCc1ccc(F)cc1F)C1CCN(c2cnc(N3CCCC3)nc2)CC1 |
| 929 s | Cc1ccc(Cn2c(=O)c(N3CCC(NC(=O)NCC4CCCO4)CC3)nc3cccnc32)cc1 (centres undefined) |
| 814 s | CCC1Oc2ccc(S(=O)(=O)N3CCC(C(=O)Nc4cccc(C)c4)CC3)cc2NC1=O (centres undefined) |
| 657 s | Cc1cc(NC(=O)C2CCN(C(=O)c3cnn(-c4ccccc4)c3C)CC2)no1 |
| 1260 s | Cc1cccc(OCCCC(=O)Nc2nc(-c3ccc(Br)cc3)cs2)c1 |
| 951 s | COc1nc2ccccc2nc1N1CCCC(C(=O)NCc2ccco2)C1 (centres undefined) |
| 773 s | CCCn1cc(C2=CCN(C(=O)Nc3cccc(Cl)c3F)CC2)c2cccnc21 |
| 600 s | O=S(=O)(NCc1ccc2[nH]c3c(c2c1)CCCC3)c1ccccc1 |
| 702 s | CCCNc1cc(N2CCC(CCC(=O)N(C)Cc3ccccc3)CC2)ncn1 |
| 1270 s | Cc1cc(=O)n(Cc2cccc(Br)c2)c(Nc2ccc(F)c(F)c2)n1 |
| 925 s | Cn1c(C(=O)N2CCCC(C(=O)N3CCc4ccccc4C3)C2)cc2sccc21 (centres undefined) |
| 846 s | CC1=C(c2ccccc2)S(=O)(=O)N=C1N1CCCN(C(=O)c2cc(F)cc(F)c2)CC1 |
| 916 s | COC(=O)c1cc(S(=O)(=O)N2CCCC2C(=O)Nc2cccc3ccccc23)cn1C (centres undefined) |
| 835 s | CC1=C(c2ccc(F)cc2)S(=O)(=O)N=C1N1CCCN(C(=O)c2cccc(F)c2)CC1 |
| 874 s | COc1cccc(CNC(=O)c2nnc(-c3ccc(S(=O)(=O)N4CCCC4)cc3)o2)c1 |
| 811 s | Cc1ccccc1N1CCN(C(=O)c2ccc(CN3CCN(C(C)C)C(=O)C3=O)cc2)CC1 |

| RP-LC retention time | SMILES |
| --- | --- |
| 595 s | CCOc1cc(=O)c(C(=O)N2CCC(C(N)=O)CC2)nn1-c1ccc(F)cc1 |
| 890 s | Cc1cc(C)cc(N2CCC(NC(=O)Nc3ccccc3C)C2=O)c1 (centres undefined) |
| 584 s | OCC1CN(c2ncccn2)CC12CCN(Cc1ccc3cc[nH]c3c1)CC2 (centres undefined) |
| 640 s | CN(C)S(=O)(=O)c1ccc2c(c1)N(CC(=O)N1CCN(c3ccccn3)CC1)CCS2 |
| 876 s | O=C(c1cn2cc(Cl)ccc2n1)N1CCN(c2ccc(F)cc2)CC1 |
| 693 s | Cc1ccc(NC(=O)NCC(c2cccnc2)c2c[nH]c3ccccc23)cc1F (centres undefined) |
| 994 s | Cc1occc1-c1nnc2sc(COc3ccccc3Cl)nn12 |
| 1030 s | Cc1cc(C)cc(OCc2nc(CCN(C)C(=O)COc3ccccc3)no2)c1 |
| 888 s | COc1ccc(-c2noc(C3CC(=O)N(c4ccc(C)cc4)C3)n2)c(OC)c1 (centres undefined) |
| 737 s | Cc1cccc(C2CC(=O)c3cnc(N4CCN(c5ccccn5)CC4)nc3C2)c1 (centres undefined) |
| 766 s | O=C(CN1C(=O)c2cccnc2Oc2ccccc21)NCCc1c[nH]c2ccccc12 |
| 666 s | O=C(c1ccc(=O)[nH]c1)N1CC(c2nc(-c3ccccn3)no2)C1 |
| 1030 s | Cc1ccc(N2CN(CC(=O)Nc3cccc(Cl)c3)S(=O)(=O)c3cccnc32)cc1 |
| 911 s | CC1=C(c2ccc(C(C)C)cc2)S(=O)(=O)N=C1N1CCCN(C(=O)c2ccoc2)CC1 |
| 837 s | O=C1NC(c2cccc([N+](=O)[O-])c2)=CCN1c1ccccc1O |
| 624 s | O=S(=O)(c1cccc2cccnc12)N1CCCn2nc(-c3cccnc3)cc2C1 |

The remaining lines, values behind:

| SMILES | RP-LC retention time |
| --- | --- |
| CN1C(=O)[C@H]2CN(Cc3ccc(F)c(Cl)c3)C[C@H]2C1=O | 623 s |
| O=C(c1cnccn1)N1CC(c2nc(-c3cccs3)no2)C1 | 693 s |
| Cc1cc(-c2nnc(C3CCC3)o2)c(C)n1CC(=O)Nc1ccc2c(c1)OCCO2 | 836 s |
| COCCN1C(=O)c2ccccc2C(C(=O)NCCC(C)C)C1c1cccs1 (centres undefined) | 874 s |
| COc1cc(C2OC(c3ccc(Br)cc3)=NN2C(C)=O)ccc1OC(C)=O (centres undefined) | 1000 s |
| COc1ccc(NC(=O)N2c3ccccc3CC2c2nc(C(C)C)no2)cc1OC (centres undefined) | 935 s |
| Cc1ccc(C#CC(C)(O)C(C)(C)C)cn1 (centres undefined) | 722 s |
| COc1ccccc1C(CNC(=O)c1cc(=O)c2ccccc2o1)N(C)C (centres undefined) | 606 s |
| Cc1ccc(NC(=O)CN2C(=O)NC3(CCCCC3)C2=O)cc1C | 792 s |
| CC(C)Cn1ccc2c(cc(C(=O)NCc3cccc(Br)c3)n2C)c1=O | 901 s |
| COCc1nc(-c2ccc(OC3CN(Cc4ccncc4)C3)cc2)no1 | 589 s |
| COc1ccc(-c2nc3cnccn3c2Nc2ccc(F)cc2)cc1OC | 768 s |
| CN(C)C(=O)c1cn(C2CN(C(=O)CCc3c[nH]c4ccccc34)C2)nn1 | 652 s |
| CC(C)CC(=O)Nc1nc(-c2ccc3c(c2)NC(=O)CO3)cs1 | 787 s |
| CCN(CCN(C)C)c1ccc(C(=O)O)cc1NS(=O)(=O)c1cc(F)ccc1F | 611 s |
| CC(C)NC(=O)NCCC1CCN(S(=O)(=O)c2ccccc2)CC1 | 732 s |
| C[C@]12CCC3C(CC[C@H]4C[C@H](O)CC[C@]34C)C1CC[C@@H]2C(=O)CO (some centres undefined) | 1020 s |
| CCOC(=O)c1nc(NCCN(C)Cc2ccccc2)c2c(C)noc2n1 | 623 s |
| CC(C)n1cnc2cc(CNC(=O)c3ccccc3F)ccc21 | 606 s |

| SMILES | RP-LC retention time |
| --- | --- |
| CC1=C(c2ccc(C)c(C)c2)S(=O)(=O)N=C1N1CCC(NC(=O)C2CCC2)CC1 | 853 s |
| CC1CCC(NC(=O)Cc2csc3nc(-c4ccccc4)cn23)CC1 (centres undefined) | 843 s |
| CCCCOc1cccc(C(=O)N(Cc2ccc(C)o2)C2CCS(=O)(=O)C2)c1 (centres undefined) | 1030 s |
| COc1ccc(C(C)NC(=O)c2cnn3c(-c4ccc5c(c4)OCO5)ccnc23)cc1OC (centres undefined) | 875 s |
| COC(=O)c1ccc(Cl)cc1NC(=O)N(C)CCc1c(C)nn(C)c1C | 873 s |
| Cc1ccc(CNC(=O)CCNc2c(-c3ccc(F)cc3)nc3cnccn23)o1 | 694 s |
| Nc1cc(C(=O)Nc2ccccc2F)ccc1N1CC2CC(C1)c1cccc(=O)n1C2 (centres undefined) | 740 s |
| COc1ccc(NC(=O)c2cc3c(s2)CN(C2CC2)C3)c(C)c1 | 783 s |
| COc1ccc(OC)c(S(=O)(=O)NC(C)c2ccccc2)c1 (centres undefined) | 845 s |
| CCOc1ccc(NS(=O)(=O)c2c(C)sc(C)c2-c2cc(C(F)(F)F)on2)cc1 | 1220 s |
| Cc1cc(C(=O)NCC2CCN(C(=O)Oc3ccccc3)CC2)c(C)o1 | 829 s |
| CN1CCCc2cc(CCNC(=O)c3c(F)cccc3F)ccc21 | 614 s |
| CN(C)c1nc(Cl)nc2c1nc(Cl)n2C1CCCCO1 (centres undefined) | 1130 s |
| COc1ccc2[nH]cc(CN3CC[C@H](c4n[nH]c(C)n4)[C@H](N(C)C)C3)c2c1 | 547 s |
| CCn1ccc(C(=O)N2CCCC2c2ccc(OC)cc2)n1 (centres undefined) | 795 s |
| COc1ccc(CN2CCC3(CC2)CC(C)(O)CCO3)cc1C (centres undefined) | 629 s |
| Cc1cc(NC(=O)CSc2nnc(NC(=O)c3ccc4c(c3)OCO4)s2)no1 | 727 s |
| Cc1cc(N(C)C)n2ncc(-c3ccc(Cl)cc3)c2n1 | 889 s |
| Cn1c(=O)sc2cc(S(=O)(=O)N3CCC(C(=O)NC4CCCCC4)CC3)ccc21 | 822 s |

| SMILES | RP-LC retention time |
| --- | --- |
| CS(=O)(=O)N1CCC(C(=O)NCCC2=CCCCC2)Oc2ccc(Cl)cc21 (centres undefined) | 1020 s |
| CCn1nnc2cc(-c3noc(-c4ccc(NC(C)=O)cc4)n3)ccc21 | 812 s |
| CC(C)Oc1ccc(CNC(=O)c2cc(-c3ccncc3)cn2C)cc1 | 640 s |
| CCOC(=O)c1cnn(-c2ccc(C(=O)NC(C)C)cc2)c1N | 823 s |
| COC(=O)c1ccccc1NC(=O)Cn1c(=O)n(-c2ccc(F)cc2)c(=O)c2c1cc(C)n2C | 933 s |
| COC(=O)c1ccccc1NC(=O)CCn1c(=O)oc2ccccc21 | 825 s |
| COc1cc(-c2nc3nc(C)cc(C)n3c2Nc2ccc(Cl)cc2)ccc1O | 656 s |
| COc1ccc(CNC(=O)Nc2cc3c(cc2Oc2ccccc2)n(C)c(=O)n3C)cc1 | 840 s |
| Cc1cn(C)nc1C(=O)Nc1nnc(-c2ccco2)o1 | 622 s |
| CC(C)N1C(=O)c2cccnc2Sc2cc(NC(=O)C(C)(C)C)ccc21 | 828 s |
| Cc1ccc2c(c1)N(C(=O)Cn1c(=O)n(C3CC3)c(=O)c3nscc31)CCO2 | 773 s |
| COC(=O)c1ccccc1NC(=O)N(Cc1cc(=O)[nH]c2ccccc12)C(C)C | 831 s |
| CN1CCN(S(=O)(=O)c2ccc(C3CCCCC3)cc2)CC1 | 616 s |
| O=C(Nc1ccc(-c2cn3ccccc3n2)cc1)c1ccc([N+](=O)[O-])cc1 | 586 s |
| CCCC(=O)Nc1ccc(CCc2nc3ccc(C(=O)NCc4ccco4)cc3[nH]2)cc1 | 635 s |
| COC[C@@H]1CN(S(=O)(=O)c2ccc(F)cc2)C[C@H]1c1nc(C)no1 | 858 s |
| COc1ccc(C2(C(N)=O)CC2)cc1 | 682 s |
| O=C(Nc1ncc(SCCN2CCCC2)s1)[C@]1(c2ccc(S(=O)(=O)C3CC3)cc2)C[C@H]1C1CCCCC1 | 854 s |
| CCN(CC)S(=O)(=O)c1cc(-c2nc(C(C)(C)C)cs2)cs1 | 1350 s |
